According to publication PMC11224357, “Green, facile synthesis and evaluation of unsymmetrical carbamide derivatives as antimicrobial and anticancer agents with mechanistic insights” (Scientific Reports, 2024):
Converted amounts (≈) assume the structure as drawn.

What was measured:
Aspergillus fumagitus [1] = assay: MIC by microdilution (CLSI); assay type: cell-based; conditions: read-out: Minimum inhibitory concentration (MIC)
Description: (§1) For this purpose, serial dilution of the potent compounds was carried out to obtain the desired concentrations (i.e. 10–400 µg/mL). In brief, a defined weight for each selected compound was dissolved in dimethylsulphoxide (DMSO) and used as a stock solution[29]. The determination of the MIC value for each targeted compound was known as the lowest concentration of each sample that yielded a minimum number of colony-forming units (CFU) compared to the untreated samples[28].

Candida albicans [2] = assay: MIC by microdilution (CLSI); assay type: cell-based; conditions: read-out: Minimum inhibitory concentration (MIC)
Description: as §1

Aspergillus fumagitus [3] = assay: Agar well diffusion; assay type: cell-based; conditions: Aspergillus fumagitus; 20 µg/mL; read-out: Inhibition Zone
Description: (§2) The antimicrobial efficiency of the synthesized unsymmetrical carbamide derivatives was screened using standard clinical pathogens derived from Department of Microbiology and Immunology, Faculty of Medicine (Boys), Al-Azhar University. The tested microbial pathogens used in this study were as follows, two Gram-positive bacteria (Bacillus subtilis, Staphylococcus aureus), two Gram-negative bacteria (Pseudomonas aerginousea, klebsiella pneumoniae) and two fungi (Candida albicans, Aspergillus fumgitus). Before each antimicrobial examination, pre-activation of each microbial pathogen was implemented using specific growth conditions. For bacterial ones, preinoculum was prepared using Nuitrent broth medium (Codalab, Spain) at 37 °C for 24 h. while the fungal pathogens were activated using Potato Dextrose broth (Codalab, Spain) at 28 °C for 48 h. Consequently, each tested pathogen justified its inoculum size based on Colony Forming Units (CFU) to be closed to […] during all antimicrobial tests.

Candida albicans [4] = assay: Agar well diffusion; assay type: cell-based; conditions: 20 µg/mL, read-out: Inhibition Zone
Description: as §2

Klebsiella pneumonia [5] = assay: MIC by microdilution (CLSI); assay type: cell-based; conditions: Klebsiella pneumoniae, read-out: Minimum inhibitory concentration (MIC)
Description: (§3) In brief, a defined weight for each selected compound was dissolved in dimethylsulphoxide (DMSO) and used as a stock solution[29].

Bacillus subtilis [6] = assay: MIC by microdilution (CLSI); assay type: cell-based; conditions: read-out: Minimum inhibitory concentration (MIC)
Description: as §3

Pseudomonas aeruginosa [7] = assay: MIC by microdilution (CLSI); assay type: cell-based; conditions: read-out: Minimum inhibitory concentration (MIC)
Description: as §3

Staphylococcus aureus [8] = assay: MIC by microdilution (CLSI); assay type: cell-based; conditions: read-out: Minimum inhibitory concentration (MIC)
Description: as §3

Klebsiella pneumonia [9] = assay: Agar well diffusion; assay type: cell-based; conditions: Klebsiella pneumoniae; Klebsiella pneumonia; 20 µg/mL; read-out: Inhibition Zone
Description: as §2, with “For bacterial ones, preinoculum was prepared using Nuitrent broth medium (Codalab, Spain) at 37 °C for 24 h. while the fungal pathogens were activated using Potato Dextrose broth (Codalab, Spain) at 28 °C for 48 h.” left out

Bacillus subtilis [10] = assay: Agar well diffusion; assay type: cell-based; conditions: 20 µg/mL, read-out: Inhibition Zone
Description: as §2, with “For bacterial ones, preinoculum was prepared using Nuitrent broth medium (Codalab, Spain) at 37 °C for 24 h. while the fungal pathogens were activated using Potato Dextrose broth (Codalab, Spain) at 28 °C for 48 h.” left out

Pseudomonas aeruginosa [11] = assay: Agar well diffusion; assay type: cell-based; conditions: 20 µg/mL, read-out: Inhibition Zone
Description: as §2, with “For bacterial ones, preinoculum was prepared using Nuitrent broth medium (Codalab, Spain) at 37 °C for 24 h. while the fungal pathogens were activated using Potato Dextrose broth (Codalab, Spain) at 28 °C for 48 h.” left out

Staphylococcus aureus [12] = assay: Agar well diffusion; assay type: cell-based
Description: as §2, with “For bacterial ones, preinoculum was prepared using Nuitrent broth medium (Codalab, Spain) at 37 °C for 24 h. while the fungal pathogens were activated using Potato Dextrose broth (Codalab, Spain) at 28 °C for 48 h.” left out

MTT cytotoxicity assay = assay type: cell-based, human; conditions: human, BJ-1 normal skin fibroblast cells, BJ-1 normal cells
Description: (§4) The MTT 3-(4,5-dimethylthiazol-2-yl)-2,5-diphenyl-tetrazolium bromide (Bio Basic Canada Inc. Toronto, Canada) assay was used to assess cell viability. The procedures were carried out in a biosafety class II sterile laminar air flow cabinet (Baker, SG403INT; Sanford, ME, USA). […] Cells were seeded at a density of (10^4 cells/well) into 96-well micro titer polypropylene plates and left to adhere for 24 h. The media was aspirated and the test chemicals were given to the cells in a single dose of 100 µM in DMSO. After 48 h of incubation, 40 µL of MTT salt ([…]) was applied to each well. […] Instead of the tested substances, the medium was applied to the untreated cells (negative control). […] The testing substance was dissolved in dimethylsulfoxide (DMSO), and its final concentration in the cells was less than 0.2%. The solvent concentration was the same for all medications and between the control and drug treatments at the same dilution.

[13] = tested on: HCT-116 (human colon cancer); assay: MTT cytotoxicity assay; assay type: cell-based; conditions: 48 h; for IC50: HCT-116, MTT
Description: as §4

[14] = tested on: MCF-7 (human breast cancer); assay: MTT cytotoxicity assay; assay type: cell-based; conditions: Homo sapiens, MCF-7, 48 h; for IC50: MCF7, 48 h, MTT
Description: as §4, with “The media was aspirated and the test chemicals were given to the cells in a single dose of 100 µM in DMSO.” left out

Row | SMILES | MIC (Aspergillus fumagitus [1]) | MIC (Candida albicans [2]) | zone of inhibition at 20 µg/mL (Aspergillus fumagitus [3]) | zone of inhibition at 20 µg/mL (Candida albicans [4]) | melting point | zone of inhibition at 20 µg/mL (Klebsiella pneumonia [9]) | zone of inhibition at 20 µg/mL (Bacillus subtilis [10]) | zone of inhibition at 20 µg/mL (Pseudomonas aeruginosa [11]) | zone of inhibition at 20 µg/mL (Staphylococcus aureus [12]) | further results
1 | C[C@@H]1[C@H](O)[C@@H](C)/C=C/C=C/C=C/C=C/C=C/C=C/C=C/[C@H](O[C@@H]2O[C@H](C)[C@@H](O)[C@H](N)[C@@H]2O)C[C@@H]2O[C@](O)(C[C@@H](O)C[C@@H](O)[C@H](O)CC[C@@H](O)C[C@@H](O)CC(=O)O[C@H]1C)C[C@H](O)[C@H]2C(=O)O [Amphotericin B, reference compound] | 20 µg/mL (≈ 21.6 µM) | 40 µg/mL (≈ 43.3 µM) | 5 mm | 4 mm | – | – | – | – | – | –
2 | CC1=C(C(=O)O)N2C(=O)[C@@H](NC(=O)[C@H](N)C3=CCC=CC3)[C@H]2SC1 [Cephradine, reference compound] | – | – | – | – | – | – | – | – | – | MIC (Klebsiella pneumonia [5]): > 400 µg/mL; MIC (Bacillus subtilis [6]): 320 µg/mL (≈ 916 µM); MIC (Pseudomonas aeruginosa [7]): > 400 µg/mL; MIC (Staphylococcus aureus [8]): > 400 µg/mL
3 | Cc1ccc(S(=O)(=O)NC(=O)N2CCCC2)cc1 [Compound 9, N-tosylpyrrolidine-1-carboxamide] | – | – | 2 mm | – | 228 to 230 °C | 2 mm | 6 mm | 2 mm | 4 mm | –
4 | Cc1ccc(S(=O)(=O)NC(=O)N2CCOCC2)cc1 [Compound 10, N-tosylmorpholine-4-carboxamide] | – | – | 2 mm | – | 210 to 211 °C | 2 mm | 2 mm | – | 4 mm | cytotoxicity at 48 h, 100 µM (MTT cytotoxicity assay): 19.7%; IC50 [13]: 72.6 ± 0.13 µM; cytotoxicity at 100 µM ([13]; HCT-116, single dose 100 µM, read-out: Cytotoxicity (%)): ≥ 65%
5 | Cc1ccc(S(=O)(=O)NC(=O)N2CCN(C)CC2)cc1 [Compound 11, 4-Methyl-N-tosylpiperazine-1-carboxamide] | – | – | – | – | 190 to 192 °C | 2 mm | – | – | 2 mm | –
6 | Cc1ccc(S(=O)(=O)NC(=O)N2CCCCC2)cc1 [Compound 12, N-tosylpiperidine-1-carboxamide] | – | – | – | 2 mm | 232 to 235 °C | 3 mm | – | – | 3 mm | –
7 | Cc1ccc(NC(=O)N2CCCC2)cc1 [Compound 14, N-(p-tolyl)pyrrolidine-1-carboxamide] | – | – | 3 mm | 8 mm | 180 to 182 °C | 2 mm | 4 mm | – | 3 mm | –
8 | Cc1ccc(NC(=O)N2CCN(C)CC2)cc1 [Compound 16, 4-Methyl-N-(p-tolyl)piperazine-1-carboxamide] | 80 µg/mL (≈ 343 µM) | 10 µg/mL (≈ 42.9 µM) | 3 mm | 5 mm | 252 to 253 °C | 5 mm | 2 mm | 3 mm | 2 mm | MIC (Bacillus subtilis [6]): 160 µg/mL (≈ 686 µM); MIC (Pseudomonas aeruginosa [7]): 160 µg/mL (≈ 686 µM); MIC (Staphylococcus aureus [8]): 320 µg/mL (≈ 1370 µM)
9 | Cc1ccc(NC(=O)N2CCCCC2)cc1 [Compound 17, N-(p-tolyl)piperidine-1-carboxamide] | 20 µg/mL (≈ 91.6 µM) | 20 µg/mL (≈ 91.6 µM) | 3 mm | 2 mm | 230 to 232 °C | 3 mm | 5 mm | 3 mm | 2 mm | MIC (Klebsiella pneumonia [5]): 80 µg/mL (≈ 366 µM); MIC (Bacillus subtilis [6]): 10 µg/mL (≈ 45.8 µM); MIC (Pseudomonas aeruginosa [7]): 40 µg/mL (≈ 183 µM); MIC (Staphylococcus aureus [8]): 80 µg/mL (≈ 366 µM)
10 | Cc1ccc(NC(=O)NC23CC4CC(CC(C4)C2)C3)cc1 [Compound 18, 1-(Adamantan-1-yl)-3-(p-tolyl)urea] | – | – | 3 mm | 2 mm | 180 to 182 °C | – | 2 mm | – | – | –
11 | O=C(Nc1ccccc1)N1CCCC1 [Compound 19, N-phenylpyrrolidine-1-carboxamide] | 40 µg/mL (≈ 210 µM) | 10 µg/mL (≈ 52.6 µM) | 3 mm | 4 mm | 233 to 235 °C | 4 mm | 2 mm | 2 mm | 2 mm | MIC (Bacillus subtilis [6]): 80 µg/mL (≈ 421 µM); MIC (Pseudomonas aeruginosa [7]): 80 µg/mL (≈ 421 µM); MIC (Staphylococcus aureus [8]): 160 µg/mL (≈ 841 µM)
12 | O=C(Nc1ccccc1)N1CCOCC1 [Compound 20, N-phenylmorpholine-4-carboxamide] | – | – | 2 mm | 3 mm | – | 4 mm | 2 mm | 3 mm | – | –
13 | O=C(Nc1ccccc1)NC12CC3CC(CC(C3)C1)C2 [Compound 23, 1-(Adamantan-1-yl)-3-phenylurea] | – | – | – | 3 mm | – | 2 mm | 3 mm | – | 2 mm | IC50 [14]: 68.6 ± 0.116 µM; cytotoxicity at 100 µM ([14]; MCF7, single dose 100 µM, read-out: Cytotoxicity (%)): ≥ 51%
14 | COc1cccc2c1C(=O)c1c(O)c3c(c(O)c1C2=O)C[C@@](O)(C(=O)CO)C[C@@H]3O[C@H]1C[C@H](N)[C@H](O)[C@H](C)O1 [Doxorubicin, doxorubicin, reference compound] | – | – | – | – | – | – | – | – | – | IC50 [13]: 65.1 ± 0.141 µM; IC50 [14]: 45 ± 0.123 µM
15 | OC(Cn1cncn1)(Cn1cncn1)c1ccc(F)cc1F [Fluconazole, reference compound] | > 400 µg/mL | > 400 µg/mL | – | – | – | – | – | – | – | –
